Experimental data reported in PMC5732813, “Novel piplartine-containing ruthenium complexes: synthesis, cell growth inhibition, apoptosis induction and ROS production on HCT116 cells” (Oncotarget, 2017).
Like-named read-outs stand apart in the source and are kept apart here.

Key:
[1] = test system: HCT116 (human colon carcinoma); assay: Cytotoxic activity, alamar blue assay, HCT116; assay type: cell-based
From the text: (§1) HCT116 (human colon carcinoma), HepG2 (human hepatocellular carcinoma), HSC-3 (human oral squamous cell carcinoma), SCC-4 (human oral squamous cell carcinoma), SCC-9 (human oral squamous cell carcinoma), HL-60 (human promyelocytic leukemia), K-562 (human chronic myelogenous leukemia), B16-F10 (murine melanoma), MRC-5 (human lung fibroblast), WT SV40 MEF (wild-type immortalized mouse embryonic fibroblast) and BAD KO SV40 MEF (BAD gene knockout immortalized mouse embryonic fibroblast) cell lines were obtained from the American Type Culture Collection (ATCC, Manassas, VA, USA) and cultured in RPMI-1640 medium (Gibco-BRL, Gaithersburg, MD, USA) with 10% fetal bovine serum (Life, Carlsbad, CA, USA), 2 mM L-glutamine (Vetec Química Fina, Duque de Caxias, RJ, Brazil) and 50 μg/mL gentamycin (Life, Carlsbad, CA, USA). Adherent cells were collected by treatment with 0.25% trypsin EDTA solution (Gibco-BRL, Gaithersburg, MD, USA). All cell lines were cultured in flasks at 37°C in 5% CO2 and sub-cultured every 3-4 days to maintain exponential growth.
(§2) Cell viability was quantified using the alamar blue assay, according to Ahmed et al.. Cells were inserted in 96-well plates for all experiments (7 x 10^4 cells/mL for adherent cells or 3 x 10^5 cells/mL for suspended cells in 100 μL of medium). […] Negative controls received the vehicle that was used for diluting the compounds tested.

[2] = test system: HepG2 (human hepatocellular carcinoma); assay: Cytotoxic activity, alamar blue assay, HepG2; assay type: cell-based; settings: for more potent than metal-free piplartine: HepG2, IC50 72h
From the text: as §1, §2

[3] = test system: HSC-3 (human oral squamous cell carcinoma); assay: Cytotoxic activity, alamar blue assay, HSC-3; assay type: cell-based; settings: for more potent than metal-free piplartine: HSC3, IC50 72h
From the text: as §1, §2

[4] = test system: SCC-4 (human oral squamous cell carcinoma); assay: Cytotoxic activity, alamar blue assay, SCC-4; assay type: cell-based; settings: for more potent than metal-free piplartine: SCC4, IC50 72h
From the text: as §1, §2

[5] = test system: SCC-9 (human oral squamous cell carcinoma); assay: Cytotoxic activity, alamar blue assay, SCC-9; assay type: cell-based; settings: for more potent than metal-free piplartine: SCC9, IC50 72h
From the text: as §1, §2

[6] = test system: HL-60 (human promyelocytic leukemia); assay: Cytotoxic activity, alamar blue assay, HL-60; assay type: cell-based
From the text: as §1, §2

[7] = test system: K-562 (human chronic myelogenous leukemia); assay: Cytotoxic activity, alamar blue assay, K-562; assay type: cell-based; settings: for more potent than metal-free piplartine: K562, IC50 72h
From the text: as §1, §2

[8] = test system: B16-F10 (murine melanoma); assay: Cytotoxic activity, alamar blue assay, B16-F10; assay type: cell-based; settings: for more potent than metal-free piplartine: B16-F10, IC50 72h
From the text: as §1, §2

[9] = test system: BAD KO SV40 MEF (BAD gene knockout immortalized mouse embryonic fibroblast); assay: Cytotoxic activity, alamar blue assay, BAD KO SV40 MEF; assay type: cell-based
From the text: as §1, §2

[10] = test system: WT SV40 MEF (wild-type immortalized mouse embryonic fibroblast); assay: Cytotoxic activity, alamar blue assay, WT SV40 MEF; assay type: cell-based
From the text: as §1, §2

HCT116 cells [11] = settings: trypan blue
Method: In all experiments, 2 mL of a HCT116 cell solution (7 x 10^4 cells/mL) was inserted in 24-well plates and incubated overnight to allow the cells to adhere to the plate surface. […] The negative control was treated with the vehicle (0.1% of a solution containing 70% sorbitol, 25% tween 80 and 5% water) used for diluting the compounds tested. […] Cell viability was assessed using trypan blue exclusion assay for all experiments.

[12] = test system: MRC-5 (human lung fibroblast); assay: Cytotoxic activity, alamar blue assay, MRC-5 non-cancer cells; assay type: cell-based; settings: Homo sapiens
From the text: as §1, §2

[13] = test system: PBMC (human peripheral blood mononuclear cells); assay: Cytotoxic activity, alamar blue assay, PBMC non-cancer cells; assay type: cell-based; settings: Homo sapiens
Method: PBMCs were washed and resuspended at a concentration of 3 x 10^5 cells/mL in RPMI 1640 medium with 20% fetal bovine serum, 2 mM glutamine and 50 μg/mL gentamycin at 37°C with 5% CO2. […] The Research Ethics Committee of the Oswaldo Cruz Foundation (Salvador, Bahia, Brazil) approved the experimental protocol (# 031019/2013). All participants signed a written informed consent to participate in the study.
as §2

HCT116 cells [14] = assay: Cellular reactive oxygen species levels (DCF-DA); assay type: cell-based, human; settings: 1 h, PL 10 μM
Method: The levels of ROS were measured according to previously described using DCF-DA (Sigma-Aldrich Co., Saint Louis, MO, USA). In brief, cells were treated with the complexes for 1 and 3 h. Then, the cells were collected, washed with saline and resuspended in FACS tubes with saline containing 5 μM DCF-DA for 30 min.

HCT116 cells [15] = settings: HCT116, 24 and 48h; PL 10 μM
Method: (§3) To investigate the mechanisms involved in cytotoxic action of the complexes, a new set of experiments was performed. In all experiments, 2 mL of a HCT116 cell solution (7 x 10^4 cells/mL) was inserted in 24-well plates and incubated overnight to allow the cells to adhere to the plate surface. […] The negative control was treated with the vehicle (0.1% of a solution containing 70% sorbitol, 25% tween 80 and 5% water) used for diluting the compounds tested. […] Cell viability was assessed using trypan blue exclusion assay for all experiments.
For apoptosis detection, we used a FITC Annexin V Apoptosis Detection Kit I (BD Biosciences, San Jose, CA, EUA) and the analysis were performed according to the manufacturer’s instructions. Briefly, the cells treated were collected after the indicated time, washed twice with cold saline and resuspended in 300 μL binding buffer. Then, it was added 5 μL of Annexin V-FITC staining buffer and 5 μL of propidium iodide. The mixture was incubated in the dark at 37°C for 15 min. Cell fluorescence was measured by flow cytometry as described above.
In a new set of experiments, the cells were pre-treated for 1 h with 5 mM NAC, then incubated with the complexes in the established concentration for 48 h. The cells were then trypsinized and the FITC Annexin V Apoptosis Detection assay and trypan blue exclusion assay were conducted as described above.

caspase-3 = assay: Caspase-3 activation assay (DEVD-pNA, colorimetric); settings: HCT116, DEVD-pNA, 48h; PL 10 μM
Method: as §3
A caspase-3 colorimetric assay kit (Sigma-Aldrich Co., Saint Louis, MO, USA) was used to investigate caspase-3 activation on complexes-treated HCT116 cells based on the cleavage of DEVD-pNA and the analysis was performed according to the manufacturer’s instructions. Briefly, cells were lysed by incubation with cell lysis buffer on ice for 10 min and then centrifuged. Enzyme reactions were carried out in a 96-well flat-bottom microplate. To each reaction mixture, 5 μL cell lysate was added. Absorbance at 405 nm was measured using the SpectraMax 190 Microplate Reader (Molecular Devices, Sunnyvale, CA, EUA). The results were expressed as specific activity (IU/mg protein) of caspase-3.

HCT116 cells [16] = assay: Measurement of the mitochondrial transmembrane potential (rhodamine 123); settings: HCT116, rhodamine 123, 24h; PL 10 μM
Method: as §3
Mitochondrial transmembrane potential was determined by the retention of the dye rhodamine 123 [59]. Cells were incubated with rhodamine 123 (5 μg/mL, Sigma-Aldrich Co., Saint Louis, MO, USA) at 37 °C for 15 min in the dark and washed with saline. The cells were then incubated again in saline at 37 °C for 30 min in the dark and cell fluorescence was determined by flow cytometry as described above.

calf thymus DNA (ctDNA) = assay: DNA intercalation assay (ethidium bromide displacement); assay type: binding; settings: ctDNA 15 μg/mL, ethidium bromide 1.5 μM; complexes 5, 10 and 20 μM; doxorubicin 10 μM; data not shown
Method: DNA intercalation was assessed by examining the ability of the complexes to displace ethidium bromide from ctDNA (Sigma-Aldrich Co., Saint Louis, MO, USA). Sexplicate assays (100 μL) were conducted in 96-well plates and contained 15 μg/mL ctDNA, 1.5 μM ethidium bromide and 5, 10 and 20 μM of each complexes in saline solution. […] Fluorescence was measured using excitation and emission wavelengths of 320 nm and 600 nm, respectively using the spectraMax Microplate Reader (Molecular Devices, Sunnyvale, CA, EUA).

[17] = BAD KO SV40 MEF, 72 h incubation, alamar blue, read-out: IC50
[18] = WT SV40 MEF, 72 h incubation, alamar blue, read-out: IC50

## [Ru(piplartine)(dppf)(bipy)](PF6)2 [Complex 1]
[1]; HCT116, IC50 72h
  more potent than metal-free piplartine: 4 fold
[1]; SI = IC50[MRC-5]/IC50[HCT116]
  Selectivity index (SI): 2.0
[1]; SI = IC50[PBMC]/IC50[HCT116]
  Selectivity index (SI): 1.1
[2]
  more potent than metal-free piplartine: 4 fold
[2]; SI = IC50[MRC-5]/IC50[HepG2]
  Selectivity index (SI): 2.0
[2]; SI = IC50[PBMC]/IC50[HepG2]
  Selectivity index (SI): 1.1
[3]
  more potent than metal-free piplartine: 12 fold
[3]; SI = IC50[MRC-5]/IC50[HSC-3]
  Selectivity index (SI): 5.7
[3]; SI = IC50[PBMC]/IC50[HSC-3]
  Selectivity index (SI): 3.0
[4]
  more potent than metal-free piplartine: 5 fold
[4]; SI = IC50[MRC-5]/IC50[SCC-4]
  Selectivity index (SI): 1.1
[4]; SI = IC50[PBMC]/IC50[SCC-4]
  Selectivity index (SI): 0.6
[5]
  more potent than metal-free piplartine: 4 fold
[5]; SI = IC50[MRC-5]/IC50[SCC-9]
  Selectivity index (SI): 0.8
[5]; SI = IC50[PBMC]/IC50[SCC-9]
  Selectivity index (SI): 0.4
[6]; HL-60, IC50 72h
  more potent than metal-free piplartine: 4 fold
[6]; SI = IC50[MRC-5]/IC50[HL-60]
  Selectivity index (SI): 1.0
[6]; SI = IC50[PBMC]/IC50[HL-60]
  Selectivity index (SI): 0.5
[7]
  more potent than metal-free piplartine: 5 fold
[7]; SI = IC50[MRC-5]/IC50[K-562]
  Selectivity index (SI): 1.0
[7]; SI = IC50[PBMC]/IC50[K-562]
  Selectivity index (SI): 0.5
[8]
  more potent than metal-free piplartine: 4 fold
[8]; SI = IC50[MRC-5]/IC50[B16-F10]
  Selectivity index (SI): 1.2
[8]; SI = IC50[PBMC]/IC50[B16-F10]
  Selectivity index (SI): 0.6
[9]; [17]
  IC50: 3.2 µM
[10]; [18]
  IC50: 2.4 µM
HCT116 cells [11]; HCT116, 1.25 μM, 24 h
  reduced the number of viable cells: 40.2%
HCT116 cells [11]; HCT116, 1.25 μM, 48 h
  reduced the number of viable cells: 61.5%
HCT116 cells [11]; HCT116, 2.5 μM, 24 h
  reduced the number of viable cells: 65.4%
HCT116 cells [11]; HCT116, 2.5 μM, 48 h
  reduced the number of viable cells: 77.1%

## COc1cc(/C=C/C(=O)N2CCC=CC2=O)cc(OC)c1OC [Piplartine]
[1]; SI = IC50[MRC-5]/IC50[HCT116]
  Selectivity index (SI): 2.7
[1]; SI = IC50[PBMC]/IC50[HCT116]
  Selectivity index (SI): 5.3
[2]; Homo sapiens, HepG2, 72 h
  IC50: 6.3 µM
[2]; SI = IC50[MRC-5]/IC50[HepG2]
  Selectivity index (SI): 2.7
[2]; SI = IC50[PBMC]/IC50[HepG2]
  Selectivity index (SI): 5.4
[3]; SI = IC50[MRC-5]/IC50[HSC-3]
  Selectivity index (SI): 2.3
[3]; SI = IC50[PBMC]/IC50[HSC-3]
  Selectivity index (SI): 4.6
[4]; SI = IC50[MRC-5]/IC50[SCC-4]
  Selectivity index (SI): 1.1
[4]; SI = IC50[PBMC]/IC50[SCC-4]
  Selectivity index (SI): 2.2
[5]; SI = IC50[MRC-5]/IC50[SCC-9]
  Selectivity index (SI): 1.0
[5]; SI = IC50[PBMC]/IC50[SCC-9]
  Selectivity index (SI): 2.1
[6]; SI = IC50[MRC-5]/IC50[HL-60]
  Selectivity index (SI): 1.3
[6]; SI = IC50[PBMC]/IC50[HL-60]
  Selectivity index (SI): 2.6
[7]; Homo sapiens, K562, 72 h
  IC50: 18.6 µM
[7]; SI = IC50[MRC-5]/IC50[K-562]
  Selectivity index (SI): 0.9
[7]; SI = IC50[PBMC]/IC50[K-562]
  Selectivity index (SI): 1.8
[8]; SI = IC50[MRC-5]/IC50[B16-F10]
  Selectivity index (SI): 1.6
[8]; SI = IC50[PBMC]/IC50[B16-F10]
  Selectivity index (SI): 3.2
[12]; MRC5, 72 h
  IC50: 17.3 µM
[13]; PBMC, 72 h
  IC50: 34.2 µM
[9]; Mus musculus, Fibroblast, 72 h
  IC50: 4 µM
[10]; Mus musculus, Fibroblast, 72 h
  IC50: 4.5 µM
HCT116 cells [14]
  intracellular ROS levels: induced increasing oxidative stress
HCT116 cells [15]
  early and late apoptosis (annexin-V/PI): induced increasing in the early and late apoptosis
caspase-3
  activation of caspase-3: activation of caspase-3
HCT116 cells [16]
  mitochondrial depolarization: Mitochondrial depolarization

## COc1cccc2c1C(=O)c1c(O)c3c(c(O)c1C2=O)C[C@@](O)(C(=O)CO)C[C@@H]3O[C@H]1C[C@H](N)[C@H](O)[C@H](C)O1 [Doxorubicin]
[5]; Homo sapiens, SCC-9, 72h of incubation, alamar blue, with 95% confidence interval
  IC50: 2.6 µM
[8]; Mus musculus, B16-F10, 72h of incubation, alamar blue, with 95% confidence interval
  IC50: 0.02 µM
[12]; MRC5, MRC-5 non-cancer cells, 72h of incubation, alamar blue, with 95% confidence interval, read-out: IC50
  IC50: 1.3 µM
[13]; PBMC non-cancer cells, 72h of incubation, alamar blue, with 95% confidence interval, read-out: IC50
  IC50: 5.4 µM
[9]; Mus musculus, Fibroblast, BAD KO SV40 MEF, 72 h incubation, alamar blue, read-out: IC50
  IC50: 0.41 µM
[10]; Mus musculus, Fibroblast, WT SV40 MEF, 72 h incubation, alamar blue, read-out: IC50
  IC50: 0.04 µM
Calf thymus DNA (ctDNA)
  DNA intercalation (decrease of ethidium bromide fluorescence): significantly reduced fluorescence

## [Ru(piplartine)(dppb)(bipy)](PF6)2 [Complex 2]
[2]
  more potent than metal-free piplartine: 3 fold
[3]
  more potent than metal-free piplartine: 6 fold
[4]
  more potent than metal-free piplartine: 3 fold
[5]
  more potent than metal-free piplartine: 2 fold
[7]
  more potent than metal-free piplartine: 3 fold
[8]
  more potent than metal-free piplartine: 3 fold
[9]; [17]
  IC50: 4 µM
[10]; [18]
  IC50: 6 µM
HCT116 cells [11]; HCT116, 2.5 μM, 24 h
  reduced the number of viable cells: 35.5%
HCT116 cells [11]; HCT116, 2.5 μM, 48 h
  reduced the number of viable cells: 55.5%
HCT116 cells [11]; HCT116, 5 μM, 24 h
  reduced the number of viable cells: 45.8%
HCT116 cells [11]; HCT116, 5 μM, 48 h
  reduced the number of viable cells: 66.9%
